In ChEMBL document CHEMBL1157266, “A cyclopeptide from the Insect pathogenic fungus Cordyceps sp. BCC 1788” (J Nat Prod, 2006) one finds IC50 data, which are given here for three compounds.

For orientation: IC50 means the concentration that inhibits the measured activity by half.

Where a SMILES comes first, the peptide text is derived from it. [ ]: non-standard residue; d: D form. NMeY = CN[C@@H](Cc1ccc(O)cc1)C(=O)O; dNMeF = CN[C@H](Cc1ccccc1)C(=O)O; Sar = CNCC(=O)O

For one assay, the system named is Plasmodium falciparum. Put plainly: Antimalarial activity against Plasmodium falciparum K1 by [3H]hypoxanthine uptake. The class given is functional, organism-based.
A further assay relates to Vero. As to the kind of experiment: Cytotoxicity against african green monkey Vero cells. The class given is cell-based. The note with it: Chlorocebus sabaeus.

In turn, `C[C@H]1[C@@H](O)O[C@@H]2O[C@@]3(C)CC[C@H]4[C@H](C)CC[C@@H]1[C@@]24OO3` [ARTENIMOL] showed an IC50 in the assay with Plasmodium falciparum of 6 nM.

Regarding `CC[C@H](C)[C@@H]1NC(=O)[C@H](Cc2ccc(O)cc2)N(C)C(=O)[C@H](Cc2ccccc2)NC(=O)CN(C)C(=O)[C@@H]2CCCN2C(=O)[C@@H](Cc2ccccc2)N(C)C(=O)[C@H](CC(C)C)NC1=O` [CORDYHEPTAPEPTIDE A] (cyclo(F[NMeY]IL[dNMeF]P[Sar])), the IC50 is 5350 nM in the assay on Plasmodium falciparum and more than 56900 nM in the assay on Vero.

On to `Cc1c2ccncc2c(C)c2c1[nH]c1ccccc12` [ELLIPTECINE], for which, in the assay on Vero, half-maximal inhibition (IC50) required 2440 nM.
